According to patent US20100222404A1, “INDAZOLE DERIVATIVE DIHYDROCHLORIDE” (ASAHI KASEI PHARMA CORPORATION, priority 2008, published 2010):

Assays:
[1] = Test for measuring solubility (Test Example 1, saturated solution by HPLC); type: physicochemical; settings: for solubility thermodynamic at 1 h: thermodynamic from solid, room temperature, read-out: Saturated solution concentration
Method: About 50 mg each of the “monohydrochloride salt” and the “dihydrochloride salt” were precisely weighed, and were each suspended in a solvent so as to obtain a concentration of 500 mg/ml, respectively. Each suspension was sonicated for 10 minutes, and then was shaken at room temperature for one hour. Subsequently, each of the supernatant of the suspension was subjected to centrifugal filtration (10° C., 3000 RPM, 20 minutes) using a centrifugal filter (Ultrafree-MC PTFE 0.2 μm, manufactured by Millipore, Inc.), to thereby prepare a saturated solution. Each of the saturated solutions was analyzed by HPLC, and the concentration of the saturated solution was calculated from the peak area.

[2] = Test for measuring solubility (Test Example 2, saturated solution by HPLC); type: physicochemical; settings: room temperature; for solubility thermodynamic at 1 h: thermodynamic from solid, read-out: Saturated solution concentration
Method: The “dihydrochloride salt” was precisely weighed in the amounts indicated in Table 2, and 20 ml each of the solvent was added to the weighed samples. The samples were shaken for one hour at room temperature. After it was visually checked that the samples were not completely dissolved, the samples were centrifuged (10° C., 3000 RPM, 20 minutes), and the supernatant was filtered through a Membrane filter, to thereby produce saturated solutions. Each of the saturated solutions was analyzed by HPLC, and the concentration of the saturated solution was calculated from the peak area.

[3] = Blood concentration measurement test (AUC after oral enteric capsule); type: in vivo, male beagle dogs; settings: for AUC(0-inf): dog, compound 1 free form measured in blood plasma, read-out: AUCinf mean; for AUC(0-inf) / AUCinf CV (coefficient of variation): male beagle dogs, fasting, oral enteric capsule, 1 mg/kg as free form
Method: The “monohydrochloride salt” and the “dihydrochloride salt” were respectively filled in an enteric capsule (Eudragit L coat, No. 5) to an amount of administration of 1 mg/kg in terms of the “compound 1” in a free form. The capsules were forcibly orally administered to male beagle dogs (Oriental Yeast Co., Ltd.) under fasting. 0.5, 1, 2, 3, 4, 6, 8, 10 and 24 hours after the administration, about 1 mL of blood was collected from the cephalic vein under non-anesthesia conditions, with a 2.5-mL syringe through which a heparin sodium solution had been passed through in advance (equipped with a 23 G injection needle). The collected blood was cooled in ice, and the blood plasma was separated by a centrifugal operation. After a lapse of 6 hours from the administration, the dogs were fed with a usual amount of food. The concentration of the “compound 1” in a free form in the blood plasma was measured by the LC/MS/MS method in each case, and the AUC was calculated using the Non-Compartment model of WinNonlin software v5.0.1. (in the table, AUCinf means the “AUC obtained when the blood plasma concentration was extrapolated from zero to the infinity”, mean is the “average”, SD is the “standard deviation”, and CV is the “coefficient of variation”.)

[4] = aqueous buffer, pH 6.8 Buffer solution (phosphate buffer solution)
[5] = saline or isotonic, Physiological saline, shaken one hour
[6] = simulated gastric fluid, pH 1.2 Buffer solution (1st fluid for dissolution test)

In the case of `Cc1n[nH]c2cc(OCCNC[C@H](O)c3cccc(NS(C)(=O)=O)c3)ccc12.Cl.Cl` [dihydrochloride salt, (R)—N-[3-[2-[2-(3-methylindazol-6-yloxy)ethylamino]-1-hydroxyethyl]phenyl]methanesulfonamide dihydrochloride], the solubility thermodynamic at 1 h [1, 4] is reported as 210 mg/mL, the “Solubility compared with the monohydrochloride salt” value ([1]; results of Table 1) is reported as “significantly higher solubility” and the solubility thermodynamic at 1 h [1, 5] is reported as 125 mg/mL. For the same compound, the solubility thermodynamic at 1 h [1, 6] was 128 mg/mL, the solubility thermodynamic at 1 h ([1]; Water, shaken one hour) was 189 mg/mL and the Saturated solution concentration ([2]; Ethanol, 0.1 g in 20 ml) was 0.516 mg/mL. It also gave a solubility thermodynamic at 1 h ([2]; aqueous buffer, pH 4.0 Buffer solution (0.05 mol/L acetic acid/sodium acetate), 4 g in 20 ml) of 147 mg/mL, a solubility thermodynamic at 1 h ([2]; aqueous buffer, pH 6.8 Buffer solution (2nd fluid for dissolution test), 4 g in 20 ml) of 156 mg/mL and a solubility thermodynamic at 1 h ([2]; saline or isotonic, Physiological saline, 5 g in 20 ml) of 98.8 mg/mL. It also gave a solubility thermodynamic at 1 h ([2]; simulated gastric fluid, pH 1.2 Buffer solution (1st fluid for dissolution test), 4 g in 20 ml) of 97.8 mg/mL, a solubility thermodynamic at 1 h ([2]; Water, 5 g in 20 ml) of 143 mg/mL and an AUC(0-inf) [3] of 1390 ng·h/mL. For the same compound, the “Variation of the AUC (CV) compared with the monohydrochloride salt” value ([3]; dogs, oral administration using enteric capsules) was “smaller” and the “AUCinf CV (coefficient of variation)” value [3] was 29.5%.
In the case of `Cc1n[nH]c2cc(OCCNC[C@H](O)c3cccc(NS(C)(=O)=O)c3)ccc12.Cl` [monohydrochloride salt, (R)—N-[3-[2-[2-(3-methylindazol-6-yloxy)ethylamino]-1-hydroxyethyl]phenyl]methanesulfonamide hydrochloride, reference compound], the solubility thermodynamic at 1 h [1, 4] is reported as 23.7 mg/mL, the solubility thermodynamic at 1 h [1, 5] is reported as 32.2 mg/mL and the solubility thermodynamic at 1 h [1, 6] is reported as 73.5 mg/mL. The solubility thermodynamic at 1 h ([1]; Water, shaken one hour) was 36.7 mg/mL, the AUC(0-inf) [3] was 1110 ng·h/mL and the “AUCinf CV (coefficient of variation)” value [3] was 70.0%.
